Where two headings read alike, the source gives them in different places.
Assays:
[1] = system: AT1R; settings: cited from earlier work
[2] = system: AT1R single mutants; assay: Ligand binding assays on AT1R single mutants, COS-1 cell membranes; settings: residues Tyr35, Trp84, Arg167 and Lys199
[3] = target: T1, AT1R single mutants (Homo sapiens, UniProt P30556, P285A); assay: as above; settings: Pro285Ala mutant
T1 sequence (P30556 1-359 P285A): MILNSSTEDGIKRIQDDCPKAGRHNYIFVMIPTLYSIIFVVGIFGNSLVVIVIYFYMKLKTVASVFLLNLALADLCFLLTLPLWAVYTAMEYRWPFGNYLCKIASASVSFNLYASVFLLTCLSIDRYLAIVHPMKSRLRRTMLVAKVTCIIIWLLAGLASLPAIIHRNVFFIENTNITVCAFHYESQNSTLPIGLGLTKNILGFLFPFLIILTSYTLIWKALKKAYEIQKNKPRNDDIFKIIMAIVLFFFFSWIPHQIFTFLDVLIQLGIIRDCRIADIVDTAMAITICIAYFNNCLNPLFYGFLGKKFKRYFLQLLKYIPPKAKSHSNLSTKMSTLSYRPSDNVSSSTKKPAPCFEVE

## CCCCc1nc(Cl)c(CO)n1Cc1ccc(-c2ccccc2-c2nn[nH]n2)cc1 [Losartan, losartan]
[1]; ref Miura et al., 2011
  binding affinity to AT1R compared to the later developed ARBs: lower
  mode of antagonism: surmountable antagonist

## CCc1cc2c(c(CC)n1)CCC(=O)N2Cc1ccc(-c2ccccc2-c2nn[nH]n2)cc1 [ZD7155]
[1]; ref Junggren et al., 1996
  potency and duration compared with losartan: more potent and longer-lasting

## CCOc1nc2cccc(C(=O)O)c2n1Cc1ccc(-c2ccccc2-c2nnn[nH]2)cc1 [candesartan]
[1]; ref Takezako et al., 2004
  dissociation rate from AT1R: slow
  mode of antagonism: insurmountable inverse agonist
[2]
  role of residues for binding (mutagenesis): critical

## CCCCc1ncc(/C=C(\Cc2cccs2)C(=O)O)n1Cc1ccc(C(=O)O)cc1 [eprosartan]
[3]
  change of binding affinity at mutant: strong decrease

## [Sar^1, Ile^8]-AngII
[2]
  role of residues for binding (mutagenesis): critical

— publication PMC4427029 (Cell, 2015)
